Reference: the NIST ThermoML archive (doi:10.1016/j.jct.2016.06.034)
± gives the expanded uncertainty stated by the source.

Assay: osmotic coefficient (dimensionless); mn = molality of the nth substance listed, in mol/kg
Conditions: 308.15 K, 84.5 kPa, Liquid, Knauer Osmomat K-7000

CCCCCCCCCCn1cc[n+](C)c1.[Br-] [1-decyl-3-methylimidazolium bromide] + O
osmotic coefficient (m1 = 0.01036): 1.233 ± 0.009 | osmotic coefficient (m1 = 0.01532): 1.16 ± 0.0062 | osmotic coefficient (m1 = 0.01539): 1.154 ± 0.006 | osmotic coefficient (m1 = 0.02001): 1.11 ± 0.0044 | osmotic coefficient (m1 = 0.02014): 1.106 ± 0.0042 | osmotic coefficient (m1 = 0.02471): 1.081 ± 0.0035 | osmotic coefficient (m1 = 0.02479): 1.075 ± 0.0033 | osmotic coefficient (m1 = 0.03022): 1.06 ± 0.0029 | osmotic coefficient (m1 = 0.03026): 1.055 ± 0.0028 | osmotic coefficient (m1 = 0.03486): 1.021 ± 0.0021 | osmotic coefficient (m1 = 0.0384): 0.9873 ± 0.0021 | osmotic coefficient (m1 = 0.03983): 0.9742 ± 0.0022 | osmotic coefficient (m1 = 0.04483): 0.8983 ± 0.0041 | osmotic coefficient (m1 = 0.04981): 0.8319 ± 0.0065 | osmotic coefficient (m1 = 0.05918): 0.735 ± 0.01 | osmotic coefficient (m1 = 0.06429): 0.687 ± 0.012 | osmotic coefficient (m1 = 0.06983): 0.644 ± 0.014 | osmotic coefficient (m1 = 0.07967): 0.579 ± 0.016 | osmotic coefficient (m1 = 0.08811): 0.53 ± 0.018 | osmotic coefficient (m1 = 0.09976): 0.48 ± 0.02 | osmotic coefficient (m1 = 0.1175): 0.417 ± 0.023
